One assay addresses human VPS34 (Homo sapiens (Human), UniProt Q8NEB9). The assay is described as follows: Human VPS34 enzyme assay (Adapta TR-FRET ADP detection).
Conditions: not given
In kind it is biochemical. The arrangement: Percent Inhibition: dose or concentration left out as unconfirmed. In general terms: In TR-FRET formats the signal depends on donor and acceptor labels being close together.
Chain of human VPS34 (Q8NEB9 whole entry): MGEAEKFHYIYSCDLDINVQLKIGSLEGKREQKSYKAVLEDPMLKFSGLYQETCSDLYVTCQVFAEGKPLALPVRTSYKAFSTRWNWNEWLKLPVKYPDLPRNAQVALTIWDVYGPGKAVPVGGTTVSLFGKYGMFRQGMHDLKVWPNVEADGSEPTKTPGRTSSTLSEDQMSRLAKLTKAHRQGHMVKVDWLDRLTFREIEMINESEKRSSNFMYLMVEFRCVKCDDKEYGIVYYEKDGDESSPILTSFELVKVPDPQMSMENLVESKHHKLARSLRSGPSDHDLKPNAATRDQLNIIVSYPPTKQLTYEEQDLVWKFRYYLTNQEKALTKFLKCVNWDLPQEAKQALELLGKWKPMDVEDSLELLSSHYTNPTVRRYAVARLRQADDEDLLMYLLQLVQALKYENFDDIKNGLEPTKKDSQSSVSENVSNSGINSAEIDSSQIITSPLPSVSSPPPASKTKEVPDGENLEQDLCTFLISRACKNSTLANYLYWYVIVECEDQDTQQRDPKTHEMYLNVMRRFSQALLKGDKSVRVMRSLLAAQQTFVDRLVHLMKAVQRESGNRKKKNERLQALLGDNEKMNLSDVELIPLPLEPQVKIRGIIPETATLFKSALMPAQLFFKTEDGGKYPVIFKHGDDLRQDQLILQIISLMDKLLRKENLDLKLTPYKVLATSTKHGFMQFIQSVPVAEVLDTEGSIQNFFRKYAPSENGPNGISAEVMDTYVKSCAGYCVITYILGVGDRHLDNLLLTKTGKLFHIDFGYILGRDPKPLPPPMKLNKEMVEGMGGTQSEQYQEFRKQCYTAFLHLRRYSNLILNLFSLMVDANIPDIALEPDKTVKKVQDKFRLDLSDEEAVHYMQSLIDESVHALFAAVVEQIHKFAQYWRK
As to `Cc1nccc(Nc2cc(-c3cnc(N)c(C(=O)N(C)C45CC(C4)C5)c3)ccn2)n1` [Compound I-277, 6-amino-N-(bicyclo[1.1.1]pent-1-yl)-N-methyl-2′-[(2-methylpyrimidin-4-yl)amino]-3,4′-bipyridine-5-carboxamide], the “Percent Inhibition” value is 100%.
On to `Cc1c(-c2ccnc(N)c2)cnc(Cl)c1NS(=O)(=O)c1ccc(F)cc1F` [Compound I-287, N′-(2′-amino-6-chloro-4-methyl-3,4′-bipyridin-5-yl)-2,4-difluorobenzenesulfonamide], for which the “Percent Inhibition” value is recorded as 91%.

Staying with this assay, now noted: IC50 range class.
Broadly, the IC50 is the concentration that inhibits the measured activity by half. In turn, `Cc1nccc(Nc2cc(-c3cnc(C)c(C(=O)N4CCCCC4)c3)ccn2)n1` [Compound I-262, [6-methyl-2′-[(2-methylpyrimidin-4-yl)amino]-3,4′-bipyridin-5-yl](piperidin-1-yl)methanone] had an IC50 of 10 to 50 nM.
Still for that read-out and setting: the result for `Cc1ncc(-c2ccnc(-n3cnc4c(C)nccc43)c2)cc1NS(=O)(=O)N(C)C` [Compound I-263, N,N-dimethyl-N′-[6-methyl-2′-(4-methyl-1H-imidazol[4,5-c]pyridin-1-yl)-3,4′-bipyridin-5-yl]sulfuric diamide] reads above 100 nM; that for `Cc1c(-c2ccnc(Nc3ccnc(-c4ccccc4)n3)c2)cnc(Cl)c1NS(=O)(=O)c1ccc(F)cc1F` [Compound I-264, N-{6-chloro-4-methyl-2′-[(2-phenylpyrimidin-4-yl)amino]-3,4′-bipyridin-5-yl}-2,4-difluorobenzenesulfonamide], below 10 nM; that for `Cc1ncc(-c2ccnc(Nc3ncccn3)c2)cc1NS(=O)(=O)c1ccc(F)cc1F` [Compound I-265, 2,4-difluoro-N-[6-methyl-2′-(pyrimidin-2-ylamino)3,4′-bipyridin-5-yl]benzenesulfonamide], below 10 nM.
With `Cc1nccc(Nc2cc(-c3cnc(C)c(C(=O)N(C)C)c3)ccn2)n1` [Compound I-266, N,N,6-trimethyl-2′-[(2-methylpyrimidin-4-yl)amino]-3,4′-bipyridine-5-carboxamide], the IC50 lay in the range of 10 to 50 nM.
For the molecule `COc1ncc(-c2ccnc(NC(C)=O)c2)c(C)c1NS(=O)(=O)N(C)C` [Compound I-268, N-{5-[(dimethylsulfamoyl)amino]-6-methoxy-4-methyl-3,4′-bipyridin-2′-yl}acetamide], the IC50 is above 100 nM.
Same read-out and setting: the result for `CC(=O)Nc1cc(-c2cnc(C)c(NS(=O)(=O)N3CCN(C)CC3)c2)ccn1` [Compound I-269, N-(6-methyl-5-{[(4-methylpiperazin-1-yl)sulfonyl]amino}-3,4′-bipyridin-2′-yl)acetamide] reads 10 to 50 nM.
The same measure, in the same setting: the result for `Cc1ncc(-c2ccnc(Nc3nc4ccccc4s3)c2)cc1NS(=O)(=O)c1ccc(F)cc1F` [Compound I-271, N-[2′-(1,3-benzothiazol-2-ylamino)-6-methyl-3,4′-bipyridin-5-yl]-2,4-difluorobenzenesulfonamide] reads 10 to 50 nM; that for `Cc1cc(Nc2cc(-c3cnc(Cl)c(NS(=O)(=O)c4ccc(F)cc4F)c3C)ccn2)ccn1` [Compound I-272, N-{6-chloro-4-methyl-2′-[(2-methylpyridin-4-yl)amino]-3,4′-bipyridin-5-yl}-2,4-difluorobenzenesulfonamide], 50 to 100 nM; that for `CCN(C)S(=O)(=O)Nc1cc(-c2ccnc(NC(C)=O)c2)cnc1C` [Compound I-273, N-(5-{[ethyl(methyl)sulfamoyl]amino}-6-methyl-3,4′-bipyridin-2′-yl)acetamide], below 10 nM.
Same read-out and setting: next, `CC(=O)Nc1cc(-c2cnc(C)c(NS(=O)(=O)N3CCCC3)c2)ccn1` [Compound I-274, N-{6-methyl-5-[(pyrrolidin-1-ylsulfonyl)amino]-3,4′-bipyridin-2′-yl}acetamide]: 10 to 50 nM; `Cc1nccc(Nc2cc(-c3cnc(C)c(C(=O)N(C)C45CC(C4)C5)c3)ccn2)n1` [Compound I-275, N-(bicyclo[1.1.1]pent-1-yl)-N,6-dimethyl-2′-[(2-methylpyrimidin-4-yl)amino]-3,4′-bipyridine-5-carboxamide]: 10 to 50 nM.
As for `Cc1nccc(Nc2cc(-c3cnc(N)c(C(=O)N(C)C45CC(C4)C5)c3)ccn2)n1` [Compound I-277, 6-amino-N-(bicyclo[1.1.1]pent-1-yl)-N-methyl-2′-[(2-methylpyrimidin-4-yl)amino]-3,4′-bipyridine-5-carboxamide], the IC50 was below 10 nM.
On the same count and under the same terms, next, `CCc1c(-c2ccnc(NC(=O)C3CC3)c2)cnc(Cl)c1NS(=O)(=O)c1ccc(F)cc1F` [Compound I-278, N-(6-chloro-5-{[(2,4-difluorophenyl)sulfonyl]amino}-4-ethyl-3,4′-bipyridin-2′-yl)cyclopropanecarboxamide]: 10 to 50 nM; `Cc1nccc(Nc2cc(-c3cnc(O)c(S(=O)(=O)NC4CCC4)c3)ccn2)n1` [Compound I-279, N-cyclobutyl-6-hydroxy-2′-[(2-methylpyrimidin-4-yl)amino]3,4′-bipyridine-5-sulfonamide]: 10 to 50 nM.
In the case of `Cc1nccc(Nc2cc(-c3cnc(C)c(C(N)=O)c3)ccn2)n1` [Compound I-280, 6-methyl-2′-[(2-methylpyrimidin-4-yl)amino]-3,4′-bipyridine-5-carboxamide], the half-inhibitory concentration (IC50) is above 100 nM.
On the same count and under the same terms, next, `Cc1ncc(-c2ccnc(N)c2)cc1NS(=O)(=O)N(C)C` [Compound I-281, N′-(2′-amino-6-methyl-3,4′-bipyridin-5-yl)-N,N-dimethylsulfuric diamide]: above 100 nM; `Cc1c(-c2ccnc(Nc3ccncn3)c2)cnc(Cl)c1NS(=O)(=O)c1ccc(F)cc1F` [Compound I-282, N-[6-chloro-4-methyl-2′-(pyrimidin-4-ylamino)-3,4′-bipyridin-5-yl]-2,4-difluorobenzenesulfonamide]: below 10 nM.
The molecule `CC(=O)Nc1cc(-c2cnc(N(C)C)c(C(=O)NC34CC(C3)C4)c2)ccn1` [Compound I-283, 2′-Acetamido-N-(bicyclo[1.1.1]pent-1-yl)-6-(dimethylamino)-3,4′-bipyridine-5-carboxamide] displayed an IC50 of 10 to 50 nM.
The same measure, in the same setting: the result for `CN(C)c1ncc(-c2ccnc(Nc3ccncn3)c2)cc1C(=O)N(C)C12CC(C1)C2` [Compound I-284, N-(bicyclo[1.1.1]pent-1-yl)-6-(dimethylamino)-N-methyl-2′-(pyrimidin-4-ylamino]-3,4′-bipyridine-5-carboxamide] reads 10 to 50 nM; that for `Cc1nccc(Nc2cc(-c3cnc(C)c(C(=O)NCC4CC4)c3)ccn2)n1` [Compound I-285, N-(cyclopropylmethyl)-6-methyl-2′-((2-methylpyrimidin-4-yl)amino)-[3,4′-bipyridine]-5-carboxamide], 10 to 50 nM.
In the case of `Cc1nccc(Nc2cc(-c3cnc(C)c(NS(=O)(=O)N(C)C)c3)ccn2)n1` [Compound I-286, N,N-dimethyl-N′-{6-methyl-2′-[(2-methylpyrimidin-4-yl)amino]-3,4′-bipyridine-5-yl}sulfuric diamide], the half-inhibitory concentration (IC50) was below 10 nM.
Still for that read-out and setting: the result for `Cc1c(-c2ccnc(N)c2)cnc(Cl)c1NS(=O)(=O)c1ccc(F)cc1F` [Compound I-287, N′-(2′-amino-6-chloro-4-methyl-3,4′-bipyridin-5-yl)-2,4-difluorobenzenesulfonamide] reads above 100 nM; that for `Cc1nccc(Nc2cc(-c3cnc(C)c(N4CCCN(C)S4(=O)=O)c3)ccn2)n1` [Compound I-288, 6-methyl-5-(6-methyl-1,1-dioxido-1,2,6-thiadiazinan-2-yl)-N-(2-methylpyrimidin-4-yl)-3,4′-bipyridin-2′-amine], 10 to 50 nM.
For `Cc1nc(Nc2cc(-c3cnc(C)c(NS(=O)(=O)c4ccc(F)cc4F)c3)ccn2)ccc1C#N` [Compound I-289, N-{2′-[(5-cyano-6-methylpyridin-2-yl)amino]-6-methyl-3,4′-bipyridin-5-yl}-2,4-difluorobenzenesulfonamide], the IC50 was below 10 nM.
Same read-out and setting: the result for `CC(=O)Nc1cc(-c2cnc(Cl)c(NS(=O)(=O)c3ccc(F)cc3Cl)c2C)ccn1` [Compound I-290, N-(6-chloro-5-{[(2-chloro-4-fluorophenyl)sulfonyl]amino}-4-methyl-3,4′-bipyridin-2′-yl)acetamide] reads 10 to 50 nM; that for `Cc1ncc(-c2ccnc(Nc3ccnc(C(F)(F)F)n3)c2)cc1C(=O)N1CCC1` [Compound I-292, azetidin-1-yl(6-methyl-2′-[(2-(trifluoromethyl)pyrimidin-4-yl]amino}-3,4′-bipyridin-5-yl)methanone], 10 to 50 nM.
On the same count and under the same terms, next, `Cc1nccc(Nc2cc(-c3cnc(Cl)c(NS(=O)(=O)c4ccc(F)cc4F)c3C)c(F)cn2)n1` [Compound I-294, N-{6-chloro-5′-fluoro-4-methyl-2′-[(2-methylpyrimidin-4-yl)amino]-3,4′-bipyridin-5-yl}-2,4-difluorobenzenesulfonamide]: below 10 nM; `Cc1nccc(Nc2cc(-c3cnc(Cl)c(NC(=O)c4ccc(F)cc4F)c3C)ccn2)n1` [Compound I-295, N-{6-chloro-4-methyl-2′-[(2-methylpyrimidin-4-yl)amino]-3,4′-bipyridin-5-yl}-2,4-difluorobenzamide]: 50 to 100 nM; `Cc1c(-c2ccnc(Nc3ccnc(C4CC4)n3)c2)cnc(Cl)c1NS(=O)(=O)c1ccc(F)cc1F` [Compound I-296, N-{6-chloro-2′-[(2-cyclopropylpyrimidin-4-yl)amino]-4-methyl-3,4′-bipyridin-5-yl}-2,4-difluorobenzenesulfonamide]: 10 to 50 nM.
Molecule `Cc1ncc(-c2ccnc(Nc3ccccn3)c2)cc1NS(=O)(=O)c1ccc(F)cc1F` [Compound I-297, 2,4-difluoro-N-[6-methyl-2′-(pyridin-2-ylamino)-3,4′-bipyridin-5-yl]benzenesulfonamide] returned an IC50 of 10 to 50 nM.
The same measure, in the same setting: next, `Cc1c(-c2ccnc(Nc3ncc(C#N)cn3)c2)cnc(Cl)c1NS(=O)(=O)c1ccc(F)cc1F` [Compound I-300, N-{6-chloro-2′-[(5-cyanopyrimidin-2-yl)amino]-4-methyl-3,4′-bipyridin-5-yl}-2,4-difluorobenzenesulfonamide]: 10 to 50 nM; `Cc1ncc(-c2ccnc(Nc3ccn(C)n3)c2)cc1NS(=O)(=O)c1ccc(F)cc1F` [Compound I-301, 2,4-difluoro-N-{6-methyl-2′-[(1-methyl-1H-pyrazole-3-yl)amino]-3,4′-bipyridin-5-yl]benzenesulfonamide]: 10 to 50 nM.
In turn, `CCN(CC)C(=O)c1cc(-c2ccnc(Nc3ccnc(C)n3)c2)cnc1C` [Compound I-302, N,N-diethyl-6-methyl-2′-[(2-methylpyrimidin-4-yl)amino]-3,4′-bipyridine-5-carboxamide] came in with an IC50 of 10 to 50 nM.
On the same count and under the same terms, next, `CN(C(=O)c1cc(-c2ccnc(Nc3ccncn3)c2)cnc1N)C12CC(C1)C2` [Compound I-303, 6-amino-N-(bicyclo[1.1.1]pent-1-yl)-N-methyl-2′-(pyrimidin-4-ylamino)-3,4′-bipyridine-5-carboxamide]: 10 to 50 nM.

Source of the values: patent US9751854B2 (Millennium Pharmaceuticals, Inc., priority 2014, dated 2017).
